What was measured:
[1] = phase I trial; cited from earlier work
[2] = estimated; cited from earlier work
[3] = Stability of SDC-TRAPs in mouse plasma; type: in vitro ADME; conditions: 37° C.
Experimental: SDC-TRAPs were incubated in mouse plasma for 1 h at 37° C. and assayed for integrity at 0, 0.25, 0.5 and 1 h to assess the stability of the SDC-TRAP, e.g., as compared to the effector and targeting compounds. Compound stability was determined using […].

HER2 = HER2 degradation assay with BT-474 cell line; type: cell-based, human; conditions: BT-474 cells, overnight incubation

Row | SMILES | % Remaining (1 h) [3] [%] | IC50 (HER2) [nM] | Dose at which dose-limiting toxic effects are observed [1] [mg/m^2] | Patients presenting with peripheral neuropathy [2]
1 | CC(C)C[C@H](NC(=O)[C@H](Cc1ccccc1)NC(=O)c1cnccn1)B(O)O [bortezomib] | – | – | 1.5 | more than 40%
2 | CCNC(=O)c1nnc(-c2cc(C(C)C)c(O)cc2O)n1-c1ccc2c(ccn2CCC2CCN(C(=O)c3ccc(C4(C)OB([C@H](CC(C)C)NC(=O)[C@H](Cc5ccccc5)NC(=O)c5cnccn5)OC4(C)C)cc3)CC2)c1 (stereo partly drawn) [SDC-TRAP-0240, N-((2S)-1-(((1R)-1-(4-(4-(4-(2-(5-(3-(2,4-dihydroxy-5-isopropylphenyl)-5-(ethylcarbamoyl)-4H-1,2,4-triazol-4-yl)-1H-indol-1-yl)ethyl)piperidine-1-carbonyl)phenyl)-4,5,5-trimethyl-1,3,2-dioxaborolan-2-yl)-3-methylbutyl)amino)-1-oxo-3-phenylpropan-2-yl)pyrazine-2-carboxamide] | 84.0 | > 5000 | – | –
3 | CCNC(=O)c1nnc(-c2cc(C(C)C)c(O)cc2O)n1-c1ccc(C(=O)N(C)CC[C@]23OB([C@H](CC(C)C)NC(=O)[C@H](Cc4ccccc4)NC(=O)c4cnccn4)O[C@H]2C[C@H]2C[C@@H]3C2(C)C)cc1 [SDC-TRAP-0244, N—((S)-1-(((R)-1-((3aR,4R,6R,7aS)-3a-(2-(4-(3-(2,4-dihydroxy-5-isopropylphenyl)-5-(ethylcarbamoyl)-4H-1,2,4-triazol-4-yl)-N-methylbenzamido)ethyl)-5,5-dimethylhexahydro-4,6-methanobenzo[d][1,3,2]dioxaborol-2-yl)-3-methylbutyl)amino)-1-oxo-3-phenylpropan-2-yl)pyrazine-2-carboxamide] | 62.9 | 100 | – | –
4 | CC(C)C[C@H](NC(=O)[C@H](Cc1ccccc1)NC(=O)c1cnccn1)B1OC(C)(C)C(C)(c2ccc(C(=O)N3CCC(CCn4ccc5cc(-n6c(O)nnc6-c6cc(C(C)C)c(O)cc6O)ccc54)CC3)cc2)O1 (stereo partly drawn) [SDC-TRAP-0237, N-((2S)-1-(((1R)-1-(4-(4-(4-(2-(5-(3-(2,4-dihydroxy-5-isopropylphenyl)-5-hydroxy-4H-1,2,4-triazol-4-yl)-1H-indol-1-yl)ethyl)piperidine-1-carbonyl)phenyl)-4,5,5-trimethyl-1,3,2-dioxaborolan-2-yl)-3-methylbutyl)amino)-1-oxo-3-phenylpropan-2-yl)pyrazine-2-carboxamide] | 84.2 | > 5000 | – | –

Now from value to molecule, other results behind:

Row | % Remaining (1 h) [3] [%] | IC50 (HER2) [nM] | SMILES | Dose at which dose-limiting toxic effects are observed [1] [mg/m^2] | Patients presenting with peripheral neuropathy [2]
5 | 54.8 | 37 | CCNC(=O)c1nnc(-c2cc(C(C)C)c(O)cc2O)n1-c1ccc(Oc2ccc(C(=O)NCC[C@]34OB([C@H](CC(C)C)NC(=O)[C@H](Cc5ccccc5)NC(=O)c5cnccn5)O[C@H]3C[C@@H]3C[C@H]4C3(C)C)cc2)cc1 [SDC-TRAP-0248, N—((S)-1-(((R)-1-((3aR,4S,6S,7aS)-3a-(2-(4-(4-(3-(2,4-dihydroxy-5-isopropylphenyl)-5-(ethylcarbamoyl)-4H-1,2,4-triazol-4-yl)phenoxy)benzamido)ethyl)-5,5-dimethylhexahydro-4,6-methanobenzo[d][1,3,2]dioxaborol-2-yl)-3-methylbutyl)amino)-1-oxo-3-phenylpropan-2-yl)pyrazine-2-carboxamide] | – | –
6 | 63.6 | 110 | CCNC(=O)c1nnc(-c2cc(C(C)C)c(O)cc2O)n1-c1ccc(Oc2ccc(C(=O)NCCCCCCC3(C)OB([C@H](CC(C)C)NC(=O)[C@H](Cc4ccccc4)NC(=O)c4cnccn4)OC3(C)C)cc2)cc1 (stereo partly drawn) [SDC-TRAP-0246, N-((2S)-1-(((1R)-1-(4-(6-(4-(4-(3-(2,4-dihydroxy-5-isopropylphenyl)-5-(ethylcarbamoyl)-4H-1,2,4-triazol-4-yl)phenoxy)benzamido)hexyl)-4,5,5-trimethyl-1,3,2-dioxaborolan-2-yl)-3-methylbutyl)amino)-1-oxo-3-phenylpropan-2-yl)pyrazine-2-carboxamide] | – | –
7 | 11.8 | 36 | CCNC(=O)c1nnc(-c2cc(C(C)C)c(O)cc2O)n1-c1ccc(C(=O)NCCCCCCC2(C)OB([C@H](CC(C)C)NC(=O)[C@H](Cc3ccccc3)NC(=O)c3cnccn3)OC2(C)C)cc1 (stereo partly drawn) [SDC-TRAP-0247, N-((2S)-1-(((1R)-1-(4-(6-(4-(3-(2,4-dihydroxy-5-isopropylphenyl)-5-(ethylcarbamoyl)-4H-1,2,4-triazol-4-yl)benzamido)hexyl)-4,5,5-trimethyl-1,3,2-dioxaborolan-2-yl)-3-methylbutyl)amino)-1-oxo-3-phenylpropan-2-yl)pyrazine-2-carboxamide] | – | –

Source: patent US10117944B2, “Targeted therapeutics” (Madrigal Pharmaceuticals, Inc., priority 2014, dated 2018)
